Results as given in patent publication US9511073B2, “Aromatic amides and uses thereof” (TAXIS Pharmaceuticals, Inc., priority 2011, dated 2016).
In brackets after ≈: the same amount, converted by molar mass.

Tested on: Staphylococcus aureus (Isolate ID ATCC 29213)
Assay: Bacterial assay: MIC by broth microdilution or agar dilution (CLSI), S. aureus ATCC 29213
Format: cell-based
Conditions: Staphylococcus aureus, ATCC29213, read-out: S. aureus MIC (μg/mL) Activity Range, S. aureus (ATCC29213)
How it was run: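 Activity is binned (A ≤0.25 μg/mL; B >0.25–1.0; C >1.0–16; D >16 μg/mL) from MICs determined per CLSI by broth microdilution or agar dilution, on S. aureus ATCC 29213 plus an FtsZ-G196A mutant strain.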

With `CC(=O)OCC(COC(C)=O)CC(Oc1ccc(F)c(C(N)=O)c1F)c1nc(-c2ccc(C(F)(F)F)cc2)c(Br)o1` (stereo not shown) [Compound 133, 2-(2-(5-bromo-4-(4-(trifluoromethyl)phenyl)oxazol-2-yl)-2-(3-carbamoyl-2,4-difluorophenoxy)ethyl)propane-1,3-diyl diacetate] as the compound, how does the MIC read?
Its MIC is over 16 µg/mL.

For `NCC(Oc1ccc(F)c(C(N)=O)c1F)c1nc(-c2ccc(C(F)(F)F)cc2)co1` (stereo not shown) [Compound 281, 3-(2-amino-1-(4-(4-(trifluoromethyl)phenyl)oxazol-2-yl)ethoxy)-2,6-difluorobenzamide], which MIC is on record?
The MIC was over 16 µg/mL.

`NC(=O)c1c(F)ccc(OC(COC(=O)NCCO)c2nc(-c3ccc(C(F)(F)F)cc3)c(Br)o2)c1F` (stereo not shown) [Compound 163, 2-(5-bromo-4-(4-(trifluoromethyl)phenyl)oxazol-2-yl)-2-(3-carbamoyl-2,4-difluorophenoxy)ethyl (2-hydroxyethyl)carbamate] was tested. Which MIC did it give?
The MIC was 0.25 to 1 µg/mL (≈ 0.421 to 1.68 µM).

How did the MIC turn out when `CN(Cc1ccccn1)C(=O)OCC(Oc1ccc(F)c(C(N)=O)c1F)c1nc(-c2ccc(C(F)(F)F)cc2)c(Br)o1` (stereo not shown) [Compound 191, 2-(5-bromo-4-(4-(trifluoromethyl)phenyl)oxazol-2-yl)-2-(3-carbamoyl-2,4-difluorophenoxy)ethyl methyl(pyridin-2-ylmethyl)carbamate] was run?
Its MIC is 1 to 16 µg/mL (≈ 1.53 to 24.4 µM).

Which MIC does the source give for `CN(Cc1cccnc1)C(=O)OCC(Oc1ccc(F)c(C(N)=O)c1F)c1nc(-c2ccc(C(F)(F)F)cc2)c(Br)o1` (stereo not shown) [Compound 185, 2-(5-bromo-4-(4-(trifluoromethyl)phenyl)oxazol-2-yl)-2-(3-carbamoyl-2,4-difluorophenoxy)ethyl methyl(pyridin-3-ylmethyl)carbamate] here?
Its MIC is 0.25 to 1 µg/mL (≈ 0.381 to 1.53 µM).

How did the MIC turn out when `NC(=O)c1c(F)ccc(O[C@H](CO)c2nc(-c3ccc4c(c3)CCO4)c(Br)o2)c1F` [Compound 253B, (R)-3-(1-(5-bromo-4-(2,3-dihydrobenzofuran-5-yl)oxazol-2-yl)-2-hydroxyethoxy)-2,6-difluorobenzamide] was run?
The MIC was 1 to 16 µg/mL (≈ 2.08 to 33.2 µM).

Which MIC does the source give for `CS(=O)(=O)OCC(Oc1ccc(F)c(C(N)=O)c1F)c1nc(-c2ccc(C(F)(F)F)cc2)c(Cl)o1` (stereo not shown) [Compound 45, 2-(3-carbamoyl-2,4-difluorophenoxy)-2-(5-chloro-4-(4-(trifluoromethyl)phenyl)oxazol-2-yl)ethyl methanesulfonate] here?
The MIC was 1 to 16 µg/mL.

How did the MIC turn out when `Cn1ccnc1CNC(=O)OCC(Oc1ccc(F)c(C(N)=O)c1F)c1nc(-c2ccc(C(F)(F)F)cc2)c(Br)o1` (stereo not shown) [Compound 201, 2-(5-bromo-4-(4-(trifluoromethyl)phenyl)oxazol-2-yl)-2-(3-carbamoyl-2,4-difluorophenoxy)ethyl ((1-methyl-1H-imidazol-2-yl)methyl)carbamate] was run?
Its MIC is 0.25 to 1 µg/mL (≈ 0.388 to 1.55 µM).

With `CCOC(=O)CCC(=O)OCC(Oc1ccc(F)c(C(N)=O)c1F)c1nc(-c2ccc(C(F)(F)F)cc2)c(Cl)o1` (stereo not shown) [Compound 56, 2-(3-carbamoyl-2,4-difluorophenoxy)-2-(5-chloro-4-(4-(trifluoromethyl)phenyl)oxazol-2-yl)ethyl ethyl succinate] as the compound, how does the MIC read?
The MIC was 0.25 to 1 µg/mL.

`CC(=O)OCC(Oc1ccc(F)c(C(N)=O)c1F)c1nc(-c2ccc(C(F)(F)F)cc2)c(Cl)o1` (stereo not shown) [Compound 42, 2-(3-carbamoyl-2,4-difluorophenoxy)-2-(5-chloro-4-(4-(trifluoromethyl)phenyl)oxazol-2-yl)ethyl acetate] was tested. Which MIC did it give?
The MIC was 0.25 to 1 µg/mL.

Which MIC does the source give for `NC(=O)c1c(F)ccc(OC(CO)c2nc(-c3ccc(C(=O)O)cc3)c(Br)o2)c1F` (stereo not shown) [Compound 251, 4-(5-bromo-2-(1-(3-carbamoyl-2,4-difluorophenoxy)-2-hydroxyethyl)oxazol-4-yl)benzoic acid] here?
Its MIC is over 16 µg/mL.

For `CCOc1cnc2sc(C(C)Oc3ccc(F)c(C(N)=O)c3F)nc2c1` (stereo not shown) [Compound 29, 3-(1-(6-ethoxythiazolo[5,4-b]pyridin-2-yl)ethoxy)-2,6-difluorobenzamide], which MIC is on record?
Its MIC is 1 to 16 µg/mL (≈ 2.64 to 42.2 µM).

`CC(=O)OCC(Oc1ccc(F)c(C(N)=O)c1F)c1nc(-c2ccc(C(F)(F)F)cn2)c(Br)o1` (stereo not shown) [Compound 78, 2-(5-bromo-4-(5-(trifluoromethyl)pyridin-2-yl)oxazol-2-yl)-2-(3-carbamoyl-2,4-difluorophenoxy)ethyl acetate] was tested. Which MIC did it give?
Its MIC is over 16 µg/mL.

For `C[C@@H](O)[C@@H](Oc1ccc(F)c(C(N)=O)c1F)c1nc(-c2ccc(OC(F)F)cc2)c(Br)o1` [Compound 297, 3-((1R,2R)-1-(5-bromo-4-(4-(difluoromethoxy)phenyl)oxazol-2-yl)-2-hydroxypropoxy)-2,6-difluorobenzamide], which MIC is on record?
Its MIC is under 0.25 µg/mL.

`Cc1noc(CNC(=O)OCC(Oc2ccc(F)c(C(N)=O)c2F)c2nc(-c3ccc(C(F)(F)F)cc3)c(Br)o2)n1` (stereo not shown) [Compound 179, 2-(5-bromo-4-(4-(trifluoromethyl)phenyl)oxazol-2-yl)-2-(3-carbamoyl-2,4-difluorophenoxy)ethyl ((3-methyl-1,2,4-oxadiazol-5-yl)methyl)carbamate] was tested. Which MIC did it give?
The MIC was under 0.25 µg/mL.

How did the MIC turn out when `C=CCc1oc(C(CCC)Oc2ccc(F)c(C(N)=O)c2F)nc1-c1ccc(Cl)cc1` (stereo not shown) [Compound 28] was run?
Its MIC is 1 to 16 µg/mL (≈ 2.24 to 35.8 µM).

Which MIC does the source give for `NC(=O)c1c(F)ccc(OC(COC(=O)NCc2cc[n+]([O-])cc2)c2nc(-c3ccc(C(F)(F)F)cc3)c(Br)o2)c1F` (stereo not shown) [Compound 175, 4-((((2-(5-bromo-4-(4-(trifluoromethyl)phenyl)oxazol-2-yl)-2-(3-carbamoyl-2,4-difluorophenoxy)ethoxy)carbonyl)amino)methyl)pyridine 1-oxide] here?
The MIC was 1 to 16 µg/mL (≈ 1.52 to 24.3 µM).

How did the MIC turn out when `CN1CCN(C(=O)OCC(Oc2ccc(F)c(C(N)=O)c2F)c2nc(-c3ccc(C(F)(F)F)cc3)c(Br)o2)CC1` (stereo not shown) [Compound 178, 2-(5-bromo-4-(4-(trifluoromethyl)phenyl)oxazol-2-yl)-2-(3-carbamoyl-2,4-difluorophenoxy)ethyl 4-methylpiperazine-1-carboxylate] was run?
The MIC was 0.25 to 1 µg/mL (≈ 0.395 to 1.58 µM).

With `NC(=O)c1c(F)ccc(OC(CNC(=O)OCc2ccccc2)c2nc(-c3ccc(C(F)(F)F)cc3)c(Br)o2)c1F` (stereo not shown) [Compound 280, benzyl (2-(5-bromo-4-(4-(trifluoromethyl)phenyl)oxazol-2-yl)-2-(3-carbamoyl-2,4-difluorophenoxy)ethyl)carbamate] as the compound, how does the MIC read?
Its MIC is 0.25 to 1 µg/mL (≈ 0.39 to 1.56 µM).

For `NC(=O)c1cccc(OC(CO)c2nc(-c3ccc(C(F)(F)F)cc3)c(Br)o2)c1F` (stereo not shown) [Compound 159, 3-(1-(5-bromo-4-(4-(trifluoromethyl)phenyl)oxazol-2-yl)-2-hydroxyethoxy)-2-fluorobenzamide], which MIC is on record?
Its MIC is under 0.25 µg/mL.

How did the MIC turn out when `NC(=O)c1c(F)ccc(OC(COC(=O)NCCC(=O)O)c2nc(-c3ccc(C(F)(F)F)cc3)c(Br)o2)c1F` (stereo not shown) [Compound 143, 3-(((2-(5-bromo-4-(4-(trifluoromethyl)phenyl)oxazol-2-yl)-2-(3-carbamoyl-2,4-difluorophenoxy)ethoxy)carbonyl)amino)propanoic acid] was run?
Its MIC is 1 to 16 µg/mL (≈ 1.61 to 25.7 µM).

For `NC(=O)c1c(F)ccc(OC(COC(=O)NCc2ccc[n+]([O-])c2)c2nc(-c3ccc(C(F)(F)F)cc3)c(Br)o2)c1F` (stereo not shown) [Compound 174, 3-((((2-(5-bromo-4-(4-(trifluoromethyl)phenyl)oxazol-2-yl)-2-(3-carbamoyl-2,4-difluorophenoxy)ethoxy)carbonyl)amino)methyl)pyridine 1-oxide], which MIC is on record?
Its MIC is over 16 µg/mL.

How did the MIC turn out when `CC(=O)OCC(OC(C)=O)C(Oc1ccc(F)c(C(N)=O)c1F)c1nc(-c2ccc(C(F)(F)F)cc2)c(Br)o1` (stereo not shown) [Compound 219, 3-(5-bromo-4-(4-(trifluoromethyl)phenyl)oxazol-2-yl)-3-(3-carbamoyl-2,4-difluorophenoxy)propane-1,2-diyl diacetate] was run?
The MIC was over 16 µg/mL.

How did the MIC turn out when `CNC(=O)C(Oc1ccc(F)c(C(N)=O)c1F)c1nc(-c2ccc(Cl)cc2)c(Cl)o1` (stereo not shown) [Compound 49, 3-(1-(5-chloro-4-(4-chlorophenyl)oxazol-2-yl)-2-(methylamino)-2-oxoethoxy)-2,6-difluorobenzamide] was run?
Its MIC is 1 to 16 µg/mL (≈ 2.19 to 35.1 µM).

How did the MIC turn out when `NC(=O)c1c(F)ccc(OC(COC(=O)CCC(=O)O)c2nc(-c3ccc(F)cc3F)c(Br)o2)c1F` (stereo not shown) [Compound 263, 4-(2-(5-bromo-4-(2,4-difluorophenyl)oxazol-2-yl)-2-(3 carbamoyl-2,4-difluorophenoxy)ethoxy)-4-oxobutanoic acid] was run?
Its MIC is 1 to 16 µg/mL (≈ 1.74 to 27.8 µM).

For `C=CCc1oc(C(C)Oc2ccc(F)c(C(N)=O)c2F)nc1-c1ccc(OC)cc1` (stereo not shown) [Compound 9], which MIC is on record?
The MIC was 0.25 to 1 µg/mL (≈ 0.603 to 2.41 µM).

With `CCCc1nc(C(CO)Oc2ccc(F)c(C(N)=O)c2F)oc1Br` (stereo not shown) [Compound 221, 3-(1-(5-bromo-4-propyloxazol-2-yl)-2-hydroxyethoxy)-2,6-difluorobenzamide] as the compound, how does the MIC read?
Its MIC is 1 to 16 µg/mL (≈ 2.47 to 39.5 µM).

For `COc1ccc(-c2csc(C(CO)Oc3ccc(F)c(C(N)=O)c3F)n2)nc1` (stereo not shown) [Compound 260, 2,6-difluoro-3-(2-hydroxy-1-(4-(5-methoxypyridin-2-yl)thiazol-2-yl)ethoxy)benzamide], which MIC is on record?
The MIC was 1 to 16 µg/mL (≈ 2.45 to 39.3 µM).

How did the MIC turn out when `NC(=O)c1c(F)ccc(OC(CO)c2nc(-c3ccc(O)cc3)c(Br)o2)c1F` (stereo not shown) [Compound 110, 3-(1-(5-bromo-4-(4-hydroxyphenyl)oxazol-2-yl)-2-hydroxyethoxy)-2,6-difluorobenzamide] was run?
Its MIC is over 16 µg/mL.

Which MIC does the source give for `CC(Oc1ccc(F)c(C(N)=O)c1F)c1nc(-c2ccc(C(F)(F)F)cn2)c(Cl)o1` (stereo not shown) [Compound 43] here?
The MIC was 1 to 16 µg/mL (≈ 2.23 to 35.7 µM).

Which MIC does the source give for `CCCc1oc(C(CC)Oc2ccc(F)c(C(N)=O)c2F)nc1-c1ccc(Cl)cc1` (stereo not shown) [Compound 26, 3-(1-(4-(4-chlorophenyl)-5-propyloxazol-2-yl)propoxy)-2,6-difluorobenzamide] here?
The MIC was 0.25 to 1 µg/mL (≈ 0.575 to 2.3 µM).

`CNC(=O)C(Oc1ccc(F)c(C(N)=O)c1F)c1nc(-c2ccc(C(F)(F)F)cc2)c(Cl)o1` (stereo not shown) [Compound 51, 3-(1-(5-chloro-4-(4-(trifluoromethyl)phenyl)oxazol-2-yl)-2-(methylamino)-2-oxoethoxy)-2,6-difluorobenzamide] was tested. Which MIC did it give?
Its MIC is 1 to 16 µg/mL (≈ 2.04 to 32.7 µM).

For `NC(=O)c1c(F)ccc(OC(CO)c2nc(-c3ccc(C(F)(F)F)cc3)c(C3CC3)o2)c1F` (stereo not shown) [Compound 269, 3-(1-(5-cyclopropyl-4-(4-(trifluoromethyl)phenyl)oxazol-2-yl)-2-hydroxyethoxy)-2,6-difluorobenzamide], which MIC is on record?
Its MIC is 1 to 16 µg/mL (≈ 2.14 to 34.2 µM).

`NC(=O)c1c(F)ccc(OC(COC(=O)NCCn2ccccc2=O)c2nc(-c3ccc(C(F)(F)F)cc3)c(Br)o2)c1F` (stereo not shown) [Compound 217, 2-(5-bromo-4-(4-(trifluoromethyl)phenyl)oxazol-2-yl)-2-(3-carbamoyl-2,4-difluorophenoxy)ethyl (2-(2-oxopyridin-1(2H)-yl)ethyl)carbamate] was tested. Which MIC did it give?
Its MIC is 0.25 to 1 µg/mL (≈ 0.372 to 1.49 µM).
